Assay results reported in US20240400717A1, “Antibody Binding to CHI3L1 for Treating Cancer” (National Cheng Kung University, priority 2021, published 2024).

Test system: MiaPaCa cells
Assay: MiaPaCa orthotopic NOD-SCID mice model
[1] = mAb 5 mg/kg i.v., gemcitabine 50 mg/kg i.p.

Method: Specifically, experimental design of tumor growth inhibition in vivo. MiaPaCa cells (5×10^6) were injected into pancreas of NOD-SCID mice at Day 0. […] Mice were sacrificed on day 34. […] Since fibrosis and angiogenesis are two major issues during tumor progression, we compared the fibrosis and angiogenesis level within each groups.

With `Nc1ccn([C@@H]2O[C@H](CO)[C@@H](O)C2(F)F)c(=O)n1` [gemcitabine, reference compound] the “level of CHI3L1 in intratumoral region and plasma” value (end of experiment) was “lower than IgG control group”, the “angiogenesis indicated by CD31 expression” value [1] was “decreased in every treatment groups” and the body weight [1] was “without significant weight loss”. The tumor size (mAb 5 mg/kg i.v., gemcitabine 50 mg/kg i.p., Day 7, 14, 21, 28, sacrificed day 34) was “smaller than IgG control group”.
